Test results as given in patent US6562387B2, “Ambient stable beverage and process of making” (priority 2000, dated 2003).
Values after ≈ are worked out from the molar mass of the structure shown. Like-named read-outs stand apart in the source and are kept apart here.

What was measured:
[1] = Minimum inhibitory concentration (MIC) of antimicrobials / essential oils; type: cell-based
From the text: The minimum inhibitory concentration (MIC) is given for each compound.
In each case the respective minimum inhibitory concentration (MIC) and their specific preferred concentration is also given.

[2] = test system: yeast Saccharomyces cerevisiae X2180-1B; settings: RTD tea pH 3.4, 1-175 ppm cinnamic acid, 1-250 ppm DMDC, 14 days at 25° C.
Procedure: Tubes were inoculated with 10^4cells of the yeast Saccharomyces cerevisiae X2180-1B. Immediately following inoculation, dimethyl dicarbonate, DMDC was added at concentrations ranging from 1-250 ppm.
Tubes were inoculated with 10^4 cells of the yeast Saccharomyces cerevisiae X2180-1B. Immediately following inoculation, dimethyl dicarbonate, DMDC was added at concentrations ranging from 1-250 ppm.

[3] = test system: yeast Saccharomyces cerevisiae X2180-1B; settings: synthetic soft drink pH 3.4, 1-175 ppm cinnamic acid, 1-250 ppm DMDC, 14 days at 25° C.
Procedure: Synthetic soft drink contained glucose, 8%w/v, citric acid 3 g/l, potassium orthophosphate 1 g/l, magnesium chloride 0.1 g/g and yeast extract 0.1 g/l. […] Tubes were inoculated with 10^4 cells of the yeast Saccharomyces cerevisiae X2180-1B. Immediately following inoculation, dimethyl dicarbonate, DMDC was added at concentrations ranging from 1-250 ppm.

[4] = cited from earlier work
mould = settings: cited from earlier work
[5] = Table I, preferred essential oils, test organism not given, read-out: MIC (ppm)
[6] = 25 ppm citral dimethyl acetal together with 35 ppm cumic alcohol
[7] = 100 ppm essential oil component
[8] = Table I, preferred essential oils, test organism not given
[9] = Table II, particularly preferred essential oils, test organism not given

CC1=CCC(O)(C(C)C)CC1 (stereo not drawn) [Terpinen-4-ol]
MIC [1, 5]: 616 µg/mL (≈ 3990 µM)

CC(C)c1ccc(CO)cc1 [Cumic alcohol]
tubes supporting yeast growth, comparison with control FIG. 1 [2, 6]: very substantially fewer tubes supporting yeast growth | tubes supporting yeast growth, comparison with control FIG. 1 [2, 7]: very substantially fewer tubes supporting yeast growth | tubes supporting yeast growth, comparison with control FIG. 11 [3, 6]: very substantially fewer tubes supporting yeast growth | tubes supporting yeast growth, comparison with control FIG. 11 [3, 7]: very substantially fewer tubes supporting yeast growth | MIC (ppm) [1, 8]: 450 ppm | MIC (ppm) [1, 9]: 450 ppm

CC(=O)OCCc1scnc1C [4-Methyl-5-thiazoleethanol acetate]
MIC [1, 5]: 1110 µg/mL

C=C(C)C1CCC(C)C(O)C1 (stereo not drawn) [Dihydrocarveol]
MIC (ppm) [1, 8]: 540 ppm

CCCCCCCCCCO [Decanol]
MIC [1, 5]: 24 µg/mL (≈ 152 µM)

CCCCCCCC1CCC(=O)O1 (stereo not drawn) [γ-Undecalactone]
MIC (ppm) [1, 8]: 28 ppm

CC(C)CC=C(C=O)c1ccccc1 [5-Methyl-2-phenyl-2-hexenal]
MIC [1]: 162 µg/mL (≈ 860 µM)

CC(C)=CCCC(C)CCO (stereo not drawn) [Citronellol]
MIC [1, 5]: 125 µg/mL (≈ 800 µM)

CCC=C(C)C=O [2-Methyl-2-pentenal]
MIC [1, 5]: 1270 µg/mL (≈ 13000 µM)

CCCC1CCCC(=O)O1 (stereo not drawn) [δ-Octalactone]
MIC (ppm) [1, 8]: 568 ppm

CCOC(=O)CCC1CCCCC1 [Ethyl cyclohexanepropionate]
MIC [1, 5]: 184 µg/mL (≈ 998 µM)

CCCCCC1CCC(=O)O1 (stereo not drawn) [γ-Nonanoic lactone]
MIC (ppm) [1, 8]: 63 ppm

CCCOC(=O)c1ccccc1 [Propyl benzoate]
MIC [1, 5]: 66 µg/mL (≈ 402 µM)

CC(C)=C1CC[C@@H](C)CC1=O [Pulegone]
MIC [1, 5]: 152 µg/mL (≈ 998 µM)

CC(C)=CCCC(C)=CC=O [Citral]
tubes supporting yeast growth, comparison with control FIG. 1 [2, 7]: very substantially fewer tubes supporting yeast growth | tubes supporting yeast growth, comparison with control FIG. 11 [3, 7]: very substantially fewer tubes supporting yeast growth | MIC [1, 5]: 228 µg/mL (≈ 1500 µM) | MIC (ppm) [1, 9]: 228 ppm

CC(=O)OCc1ccc2c(c1)OCO2 [Piperonyl acetate]
tubes supporting yeast growth, comparison with control FIG. 1 [2, 7]: very substantially fewer tubes supporting yeast growth | tubes supporting yeast growth, comparison with control FIG. 11 [3, 7]: very substantially fewer tubes supporting yeast growth | MIC [1]: 242 µg/mL | MIC (ppm) [1, 9]: 242 ppm

COC(C=C(C)CCC=C(C)C)OC [Citral dimethyl acetal]
tubes supporting yeast growth, comparison with control FIG. 1 [2, 6]: very substantially fewer tubes supporting yeast growth | tubes supporting yeast growth, comparison with control FIG. 1 [2, 7]: very substantially fewer tubes supporting yeast growth | tubes supporting yeast growth, comparison with control FIG. 11 [3, 6]: very substantially fewer tubes supporting yeast growth | tubes supporting yeast growth, comparison with control FIG. 11 [3, 7]: very substantially fewer tubes supporting yeast growth | MIC [1, 5]: 198 µg/mL (≈ 998 µM) | MIC (ppm) [1, 9]: 198 ppm

C=C(C)C1CC=C(C)C(=O)C1 (stereo not drawn) [Carvone]
MIC [1, 5]: 300 µg/mL (≈ 2000 µM)

CC1CCC(C(C)C)C(O)C1 (stereo not drawn) [Neomenthol]
MIC (ppm) [1, 8]: 156 ppm

C/C(C=O)=C\c1ccccc1 [α-Methyl-trans-cinnamaldehyde]
MIC (ppm) [1, 8]: 58.4 ppm

O=CC=Cc1ccccc1 [Cinnamaldehyde]
MIC [1, 5]: 66 µg/mL (≈ 499 µM)

COc1ccccc1C=CC=O [o-Methoxycinnamaldehyde]
MIC [1, 5]: 130 µg/mL (≈ 802 µM)

CC(=O)C(=O)c1ccccc1 [1-Phenyl-1,2-propanedione]
MIC [1, 5]: 222 µg/mL (≈ 1500 µM)

CCCCCCCCO [1-Octanol]
MIC [1, 5]: 247 µg/mL (≈ 1900 µM)

Tolualdehyde
MIC (ppm) [1, 8]: 240 ppm

CC(C)(C)C1CCC(=O)CC1 [4-tert-Butylcyclohexanone]
MIC [1, 5]: 462 µg/mL (≈ 3000 µM)

COC(=O)c1ccccc1O [Methyl salicylate]
MIC [1, 5]: 152 µg/mL (≈ 999 µM)

CCCCCCCCCCCO [1-Undecanol]
MIC [1, 5]: 14 µg/mL (≈ 81.2 µM)

CCCCC/C=C/C=C/C=O [trans, trans-2,4-Decadienal]
tubes supporting yeast growth, comparison with control FIG. 1 ([2]; 15 ppm essential oil component): very substantially fewer tubes supporting yeast growth | tubes supporting yeast growth, comparison with control FIG. 11 ([3]; 15 ppm essential oil component): very substantially fewer tubes supporting yeast growth | MIC [1, 5]: 8 µg/mL (≈ 52.5 µM) | MIC (ppm) [1, 9]: 8 ppm

COC(=O)OC(=O)OC [DMDC, Dimethyl dicarbonate]
break down in aqueous environments [4]: breaks down rapidly | efficacy against mould contamination (mould): inefficient

CCCCCCCC(=O)O [Octanoic acid (caprylic), Octanoic acid]
MIC [1, 5]: 115 µg/mL (≈ 797 µM)

CCCCCCCCC(=O)O [Nonanoic acid]
MIC [1, 5]: 63 µg/mL (≈ 398 µM)

CC/C=C\CC1=C(C)CCC1=O [Jasmone]
MIC [1, 5]: 246 µg/mL (≈ 1500 µM)

CCOC(=O)C(C)=O [Ethyl pyruvate]
MIC [1, 5]: 1390 µg/mL (≈ 12000 µM) | MIC (ppm) [1, 9]: 1392 ppm

CC(=O)OCCC1CCCCC1 [2-Cyclohexylethyl acetate]
MIC [1, 5]: 102 µg/mL

O=C(O)CCCC1CCCCC1 [Cyclohexanebutyric acid]
MIC [1, 5]: 68 µg/mL (≈ 399 µM)

COC(=O)c1ccccc1N [Methyl anthranilate]
MIC [1, 5]: 310 µg/mL (≈ 2050 µM)

CC=CC=CC=O [Sorbic aldehyde (2,4-hexadienal), 2,4-hexadienal]
MIC [1, 5]: 86 µg/mL (≈ 895 µM)

CCCCCCCCCCC=O [Undecanal]
MIC [1, 5]: 34 µg/mL (≈ 200 µM)

CCCCCCCCCC=O [Decanal]
MIC [1, 5]: 47 µg/mL (≈ 301 µM)

CC(C)CCCC(C)CCO (stereo not drawn) [3,7-Dimethyl-1-octanol]
tubes supporting yeast growth, comparison with control FIG. 1 ([2]; 50 ppm essential oil component): very substantially fewer tubes supporting yeast growth | tubes supporting yeast growth, comparison with control FIG. 11 ([3]; 50 ppm essential oil component): very substantially fewer tubes supporting yeast growth | MIC [1, 5]: 15.8 µg/mL (≈ 99.8 µM) | MIC (ppm) [1, 9]: 15.8 ppm

COc1cc(C=O)ccc1O [Vanillin]
MIC [1, 5]: 1220 µg/mL (≈ 7990 µM)

O=C(OCc1ccccc1)c1ccc(O)cc1 [Benzyl-4-hydroxybenzoate]
MIC [1, 5]: 68 µg/mL (≈ 298 µM)

CC1(C)C2CC=C(CO)C1C2 (stereo not drawn) [Myrtenol]
tubes supporting yeast growth, comparison with control FIG. 1 [2, 7]: very substantially fewer tubes supporting yeast growth | tubes supporting yeast growth, comparison with control FIG. 11 [3, 7]: very substantially fewer tubes supporting yeast growth | MIC (ppm) [1, 8]: 137 ppm | MIC (ppm) [1, 9]: 137 ppm

CCCCCCCCC(=O)OC [Methyl nonanoate]
MIC [1, 5]: 90 µg/mL (≈ 522 µM)
